How the values were obtained:
[1] = Release of menadione in aqueous medium; type: physicochemical; settings: demineralized water, municipal drinking water, seawater
Protocol: The menadione release capacity of the adduct according to the invention and of MSB in three different types of water (demineralized water, municipal drinking water, and seawater) is evaluated.
The following table lists the milligrams/liter of menadione found in the solution with respect to the total menadione of the polymeric adduct added as a suspension equal to 1 g/l ([…] menadione on 1 g of dry adduct): […]

[2] = Thermal stability in controlled humidity (dispersed in aluminum silicate); type: physicochemical
Protocol: A method described in the literature is used to compare the stability of Kavist with respect to MSB. According to this method, the products, as accurately dispersed in aluminum silicate (K.F. humidity around 11%) at the level of 1.5% by weight, are kept at 55° C. for 3 days in order to evaluate their menadione content before and after the treatment. The menadione titers of the adduct according to the invention and the percentage of menadione left unchanged before and after the treatment are listed hereafter.

[3] = Characteristic parameters and comparative tests adduct vs MSB: solubility; type: physicochemical; settings: at 25° C.
[4] = pH of the medium; cited from earlier work
[5] = Stability in extruded feed (fish farm feed); type: physicochemical; settings: for menadione in feed, sampling point End point: after extrusion, drying and addition of fat; for menadione in feed, sampling point Mixer: after mixing, before extrusion
Protocol: Two preparations of vitamin supplement of approximately 2500 kg of feed were prepared for each vitamin K source. The vitamin K supplements were mixed in with the feed in an industrial mixer, extruded in a continuous extruder with the addition of live steam, dried and added with fat.

[6] = Thermal stability in air-circulation stove; type: physicochemical; settings: absence of humidity
[7] = Stability under pressure (press on disk of finely ground powder); type: physicochemical; settings: 30 minutes
[8] = Solubility in water (saturated solution in demineralized water); type: physicochemical; settings: ambient temperature, saturated solution in presence of a precipitate

| menadione release in water (in words) [1] | Final menadione/initial menadione ([2]; 55° C. for 3 days in aluminum silicate (humidity around 11%)) [%] | Final menadione content ([2]; after 55° C. for 3 days in aluminum silicate (humidity around 11%)) [%] | Initial menadione content ([2]; before treatment, dispersed in aluminum silicate (humidity around 11%) at 1.5% by weight) [%] | water solubility [3] [g/100 ml at 25 °C] | menadione in feed, sampling point End point ([5]; 1st preparation) [mg/kg] | menadione in feed, sampling point Mixer ([5]; 1st preparation) [mg/kg] | menadione in feed, sampling point End point ([5]; 2nd preparation) [mg/kg] | menadione in feed, sampling point Mixer ([5]; 2nd preparation) [mg/kg] | Men found/initial Men ([6]; 120° for 24 hours) [%] | Color ([6]; after 120° for 24 hours) | percentage of menadione left unchanged ([7]; 1 atm, 25° C.) [%] | percentage of menadione left unchanged ([7]; 1 atm, 120° C.) [%] | percentage of menadione left unchanged ([7]; 25 atm, 25° C.) [%] | percentage of menadione left unchanged ([7]; 25 atm, 120° C.) [%] | percentage of menadione left unchanged ([7]; 5000 atm, 25° C.) [%] | percentage of menadione left unchanged ([7]; 5000 atm, 120° C.) [%] | Menadione concentration mg/l saturated solution [8] | SMILES | pH at which isomerization into poorly effective product becomes complete [4] |
| --- | --- | --- | --- | --- | --- | --- | --- | --- | --- | --- | --- | --- | --- | --- | --- | --- | --- | --- | --- |
| substantially instantaneous release | 15.5 | 0.24 | 1.52 | 50 | 21.0 | 90.9 | 16.1 | 87.6 | 0 | Purple | 100 | 20 | 100 | 15 | 80 | 10 | Higher than 20 × 10^4 mg mg/l | CC1(S(=O)(=O)[O-])CC(=O)c2ccccc2C1=O.[Na+] (centres unmarked) [MSB, menadione sodium bisulfite] | approximately 8.5 |
|  |  |  |  |  | 22.7 | 86.1 | 18.1 | 86.3 |  |  |  |  |  |  |  |  |  | CC1(S(=O)(=O)O)CC(=O)c2ccccc2C1=O.NC(=O)c1cccnc1 (centres unmarked) [MNB, menadione nicotinamide bisulfite] |  |
